Measurements taken from US20090162277A1, “Lysophospholipids Solubilized Single-Walled Carbon Nanotubes” (Clemson University, priority 2005, published 2009).
Read-outs that look alike come from different tables or passages of the source.

What was measured:
[1] = Solubility assay of SWNTs dispersed in PBS with phospholipids (optical density of supernatant); format: physicochemical
Excerpt: Pristine SWNTs were synthesized using arc-deposition method. The average diameter of the SWNTs was approximately 1.4 nm measured by Raman spectroscopy and the average molecular weight of the SWNTs was 1×10^6 Dalton (Da) estimated from TEM. To measure the solubility provided by pure phospholipids, SWNTs were dispersed in phosphate buffered saline (PBS, pH=7.4) containing phospholipids of varying amounts. […] The weight ratio of solubilized SWNTs to LPC was approximately 1:10 corresponding to a molar ratio of 1:20,000 at saturation (FIG. 2b), indicating the high binding capacity of SWNTs.
Solubility Assays. Glycerol phospholipids and lysoglycerophopholipids were purchased from Avanti Polar Lipids, Inc, AL. Cell growth mediums NB and RPMI fortified with 10% FBS were obtained from Difco and Gibco (Invitrogen), respectively. SWNTs of 1 mg were placed in a series of eppendorf tubes containing lysophospholipids LPC 18:0, PC 24:0, PG 36:2, and PE 32:0 of 10, 40, 100, 400 μg and 1, 4, 10, 40 mg in 1 mL PBS solution. The eppendorf tubes were placed in a water bath and sonicated for 1 hr at room temperature. The solution was centrifuged for 3 min at 6,177 g. Approximately 0.3 mL of the supernatant was transferred into a glass cuvette and read for optical density against a blank at 360 nm. Size Exclusion Chromatography. Sepharose CL-4B beads (Sigma) having an exclusion limit molecular weight of 20×10^6 Da were used for gel filtration chromatography in a 10 mm (diameter)×150 mm (length) open column. The flow rate was produced by gravity at approximately 0.5 mL/min. Samples in 1×PBS of 40 μL were loaded onto the column with 1 M acetic acid as the mobile phase. Molecular weight markers with visible colours were used for calibration. The dark colour of the lysophospholipid dispersed SWNTs was monitored visually by comparing the elution volume with those of standard compounds. SWNT-LPC complexes were centrifuged at 16,060 g and SWNT-LPA complexes centrifuged at 6,177 g for 3 min. Their supernatants were used for size exclusion chromatography. TEM Experiment. Buffered solutions of SWNT-LPC and SWNT-LPG were sonicated for 1 min. The solutions were placed on holey carbon grids for 1 min and the excess drawn off with filter paper. The grid was negatively stained with a 2% uranyl acetate solution for 1 min. The images were recorded at magnification ranges from 400,000 to 600,000 times with the Hitach 7600 transmission electron microscope at 100 and 120 kV. Bioassay. Free lysophospholipids and micelles in SWNT-lysophospholipid solution were removed by filtration through 100 kDa Microcon (Amicon, Inc) centrifugation tubes and washed 4 times. The resulting lysophospholipid-free and micelle-free SWNT-LPC complexes were tested by […] bioassay using colon cancer (CACO-2) and macrophage (THP-1) cell lines. Each cell line was incubated in its own 8-well chamber slide (LabTek) for 48 hr at 37° C. in a CO2 incubator. Prior to treatment, cell adhesion was checked by differential interference contrast (DIC) microscopy using a Zeiss 135 Axiovert inverted microscope. Treatments ranging from 5 to 40 ppm of lysophospholipid-free and micelle-free SWNT-LPC complexes were added to each adherent cell line and incubated for 3 hr at 37° C. in a CO2 incubator. After incubation, control and treated cells were fixed with 4% paraformaldehyde for 30 min, washed in PBS and subjected to an APO-BrdU TUNEL assay (Invitrogen). This assay detects the onset of apoptosis by fluorescent detection of nuclear DNA fragments or DNA breaks. Cells were labeled with deoxythymidine analog 5-bromo-2′-deoxyuridine 5′ triphosphate (BrdUTP) followed by the addition of Alexa-Fluor 488 labeled anti-BrdU antibody. Propidium iodide was used to image the total DNA content of cells. The prepared cells were imaged using a Zeiss 510 LSM confocal fluorescence microscope.

[2] = system: MCF7 cells; assay: Rd-LPE translocation across cell membranes (rhodamine fluorescence imaging); format: cell-based; conditions: incubation 0.5 to 3.0 hours
Experimental: The SWNT lipid assemblies described above may be used to form an “optical switch” using rhodamine-lysophosphoethanolamine (Rd-LPE) and SWNTs. […] The construct of a Rd-LPE molecule and a coupled SWNT functions as a fluorescence resonance energy transfer (FRET) pair. […] FIG. 7A sets forth a control image without SWNTs. Rd-LPE was incubated with MCF7 cells for three hours. […] Images 7C through 7F show increased translocation of Rd-LPE across the MCF7 cells with respective incubation times of 0.5, 1.0, 2.0, and 3.0 hours. […] Further, the fluorescence is indicative that a physical separation between the SWNT and the Rd-LPE has occurred since the quenching effect was not observed.

Compound	solubility of SWNTs provided by the phospholipid [1]	also measured
CCCCCCCCCCCCCC(=O)OC[C@H](COP(=O)([O-])OCC[N+](C)(C)C)OC(=O)CCCCCCCCCCCCC [PC 24:0, dimyristoyl phosphatidyl choline, reference compound]	None of the above phospholipids provided good solubility	–
CCCCCCCCCCCCCCCC(=O)OCC(COP(=O)(O)OCCN)OC(=O)CCCCCCCCCCCCCCC (stereo not shown) [PE 32:0, 1,2-dipalmityolphosphatidylethanolamine, reference compound]	None of the above phospholipids provided good solubility	–
CCCCCCCC/C=C\CCCCCCCC(=O)OCC(COP(=O)(O)OCC(O)CO)OC(=O)CCCCCCC/C=C\CCCCCCCC (stereo not shown) [PG 36:2, 1,2-dioleoylphosphatidylglycerol, reference compound]	None of the above phospholipids provided good solubility	–
lysophosphatidic acid [LPA 16:0]	Comparable solubility	–
lysophosphatidylcholine [LPC 18:0]	–	effectiveness in dispersing SWNTs in PBS relative to SDS, on per molecule basis ([1]; 6,177 g RCF at tip): approximately 2.5 times; effectiveness in dispersing SWNTs relative to SDS ([1]; 16,060 g RCF at tip): one order of magnitude more effective than SDS; solubility of SWNTs provided by the phospholipid ([1]; SWNTs in PBS pH=7.4, sonication 1 hr at room temperature): completely solubilized
lysophosphatidylglycerol [LPG 18:0]	Comparable solubility	solubility of SWNTs compared with SDS [1]: slightly better than SDS
rhodamine-lysophosphoethanolamine [Rd-LPE]	–	translocation across the cell membrane (intracellular rhodamine fluorescence) [2]: minimal Rd-LPE translocation
